“And” between values parts separate entries of the source, which are not always exact repeats. Equal values may be shown once. Values belong to the molecule of their own block, whether it stands above or below them.
Assays:
QR1 = target: T1, QR1 (Homo sapiens, UniProt P15559); assay: QR1 selectivity assay, fluorescence; type: biochemical; conditions: Figure 2D; readout not stated
T1 construct: purchased Sigma-Aldrich
Description: A drug discovery campaign strategy was initiated to screen compounds for QR2-specific, cell-free inhibition and in vitro activity, followed by SAR optimization (Figure 2A) to achieve highly specific and potent QR2 inhibitor synthesis. In order to establish a varied and chemically amenable starting point, we developed a high-throughput QR2 assay (Supplemental Methods) that we screened against a library with approximately 200,000 compounds. […] Compounds that replicated the initial hit result were then assayed similarly against QR1 to evaluate compound specificity (Figure 2B). From the HTS, a chemically tractable and attractive series of compounds containing a sulfone flanked by an amine and a heterocycle were identified and selected for SAR development (Figure 2C, Supplemental Methods, Supplemental Table 1, and Supplemental Table 2). […]
menadione and 10 nM of QR2) were dispensed in 1536-well black Nunc plates (Thermo-Fisher) using aMultidrop™ Combi Reagent Dispenser (Thermo-Fisher) and pre-incubated with compounds for 10min. BNAH (200µM) was t hen added (3 µL) to the reaction using a BioNex Solutions BNX1536plate washer and the plates were incubated for another 10 min. Fluorescence intensity was followed in a PHERAstar FS multi-mode plate reader (BMG Labtech) us i ng an optic module with excitation at 360 nm and emission at 470 nm. The initial HTS includedapproximately 200,000 compounds at a single concentrationof 5 µM. The chemical libraries used were Selleck Chemicals Bioactives, the Drug-like set from Enamine, HitFinder collection from Maybridge, Spectrum Collection from Microsource, Lopa c from Sigma -Aldrich and the diversity set s from Chem Div and Che m Br idge .
Initial ‘‘hit’’ compounds were defined as causing >30% reduction of enzyme activity. Compounds suspected to be fluorescent were re -assayed in an absorbance assay at 350 nm using the same reaction but in a higher volume (100 µL), in a transparent plate (Greiner Bio- One). ‘‘Hit’’ compounds resulting from both the fluorescence and absorbance assay wer e t ested in a concentration- response, and IC50 values were de t er mi ne d. In parallel, the same

p-tau = assay: IHC of p-tau (AT8) in 5xFAD brain sections; type: in vivo, mouse; conditions: for p-tau normalized volume (individual mice): CA1, 5xFAD 1 month; for Figure 9C, IHC signal / Sup. Fig. 6-1C, IHC signal: individual animals; for p-Tau vs vehicle: cortex, 5xFAD 1 month
Description: Following the behavioral experiments, we assessed brain pathologies associated with AD present in the 5xFAD mice ([37]). Therefore, 5 days following the last behavioral experiment, and 1 month after the start of YB-537 consumption, mice were sacrificed, and coronal brain sections were used for IHC. Since the CA1 region of the hippocampus is affected during AD pathogenesis ([37]), and this brain region is involved in the behavioral paradigms used here, we acquired images of CA1. This was done with an Olympus IX83 confocal microscope using the same settings, antibodies, and exposures in all mice. Images were analyzed using Imaris (Bitplane; see methods). For each mouse, 3 coronal sections were used per antibody. In each section, the same region of CA1 was acquired, using the same image frame size and resolution, at all possible depths of the section — using a Z-stack of the whole section — to allow measurement of the fluorescent antibody marker volume, which was normalized to the brain volume from which it was taken. First, we measured oxidative stress, as indicated by 4-HNE ([38]) (Abcam, ab48506).
Perfused and fixed brain slices were blocked with 10% normal donkey serum (DNS) and 0.2% triton (Sigma-Aldrich) in PBS. Antibodies, including 4-HNE (AbCam, ab48506), Iba1 (AbCam, ab5076), AT-8 (Thermo, MN1020), Amyloid β (AbCam, ab201060), diluted in PBS with 10% DNS, were incubated at 4°C overnight. Secondary antibodies including donkey-anti-goat Alexa Fluor 568 (AbCam, ab175704), donkey-anti-mouse Cy 5 (Jackson Immuno Research, 715-175-151), and donkey-anti-rabbit DyLight 488 (AbCam, ab98488) all diluted 1:500 in PBS with 1% BSA, were applied to the slices at RT for 2 hours the next day. Slices were mounted onto glass slides using DAPI containing Vectashield (H-1200). Images were taken using a confocal microscope (Olympus IX83). Three slices were used per mouse per antibody. Tiling images of the dorsal CA1 and cortex (Bregma: –1.58mm to –2.30mm) were taken using ×20 objective, acquiring a Z-stack of the whole section. Analysis of the images was done blind by an experimenter unaware of the experimental conditions or details, using Imaris (Bitplane) software. A surface reconstruction module was used to extract the data as volumes of the used markers (4-HNE, phospho-tau, amyloid β, GFAP, and Iba1). Marker volume and intensity were normalized to the corresponding brain volume. The normalized value was averaged for each triplicate and presented here. […]
Brains were then briefly removed and placed in chilled, 4% PFA for 48 h, f oll owe d by immersion in 30% sucrose in 0.1 M PBS for a furt her 48 h. Bra i ns wer e t h e n stored at -80°C, until t he y were sliced into 40µm coronal sections usinga Lei ca CM 1950cryostat. Sli ces were then washed x3 in PBS and bl oc ke d for 1 h at RT using 10% normal donkey serum (DNS) and 0.2% triton (Sigma-Aldrich) in PBS. Antibodies, including 4- HNE (1:500, AbCam, ab48506), Iba1 (1:2,000, AbCam, ab5076), GFAP (Abcam, ab53554), phospho- tau (1:1,000, Thermo, MN1020) and amyloid β (1:1,000, AbCam, ab201060) diluted in PBS with 10% DNS were incubated at 4°C overnight. The next day, the slices were washed x3 times in PBS, and secondary antibodies including donkey anti goat A l e x a Fluor 568 (AbCam, ab175704), donkey anti-mouse Cy 5 (Jackson Immuno Research, 715- 175- 151) and donkey anti-rabbit DyLight 488 (AbCam, ab98488) all diluted 1:500 in PBS with 1% BSA, were applied to the slices at RT for 2 h. Following the incubation, the slices were washed x3 times in PBS, mounted onto gl ass slides, were uniformly covered in DAPI containing Vectashield (H-1200) and coverslips were a dde d. […]

T1 sequence (P15559 whole entry): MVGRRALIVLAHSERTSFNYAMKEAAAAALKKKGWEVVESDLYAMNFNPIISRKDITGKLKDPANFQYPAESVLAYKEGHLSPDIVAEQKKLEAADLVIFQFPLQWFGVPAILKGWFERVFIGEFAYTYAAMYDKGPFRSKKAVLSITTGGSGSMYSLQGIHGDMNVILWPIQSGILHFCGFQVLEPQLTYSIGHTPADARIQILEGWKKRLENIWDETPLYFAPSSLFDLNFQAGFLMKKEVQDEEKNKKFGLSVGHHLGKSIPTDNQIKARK

Structure (SMILES): Cc1ccc(-c2cn3cccc(C)c3n2)cc1S(=O)(=O)N1CCNCC1 [YB-537]
IC50 (QR1): > 9.99 µM
p-tau normalized volume (individual mice) (p-tau; Females): 0.0465 and 0.0384 and 0.0492 and 0.0132 and 0.0255 and 0.0111 and 0.0090
p-tau normalized volume (individual mice) (p-tau; Males): 0.0610 and 0.0859 and 0.0662 and 0.0488 and 0.0445 and 0.0550 and 0.1044 and 0.0487 and 0.0628
p-tau normalized volume (individual mice) (p-tau; Males + Females): 0.0465 and 0.0384 and 0.0492 and 0.0550 and 0.1044 and 0.0487 and 0.0628 and 0.0610 and 0.0859 and 0.0662 and 0.0488 and 0.0445 and 0.0132 and 0.0255 and 0.0111 and 0.0090
Figure 9C, IHC signal (p-tau; Cortex): 0.0130 and 0.0160 and 0.0210 and 0.0219 and 0.0108 and 0.0168 and 0.0118 and 0.0284 and 0.0147
Sup. Fig. 6-1C, IHC signal (p-tau; Females): 0.0087 and 0.0158 and 0.0323 and 0.0264 and 0.0119 and 0.0169 and 0.0098
Figure 9C, IHC signal (p-tau; Hippocampus): 0.0315 and 0.0219 and 0.0395 and 0.0356 and 0.0234 and 0.0118 and 0.0425 and 0.0378 and 0.0364
Sup. Fig. 6-1C, IHC signal (p-tau; Males): 0.0177 and 0.0343 and 0.0259 and 0.0422 and 0.0294 and 0.0273 and 0.0409 and 0.0167 and 0.0342
p-Tau vs vehicle (p-tau; females): unchanged
p-Tau vs vehicle (p-tau; males): unchanged
p-Tau vs vehicle (p-tau; total population): unchanged

IC50 (QR1): > 9.99 µM
Structure (SMILES): Cc1ccc(-c2cn3cccc(C)c3n2)cc1S(=O)(=O)N1CCC(C)CC1 [YB-800]
